In patent US20190315823A1, “SMALL CATIONIC ANTI-BIOFILM AND IDR PEPTIDES” (priority 2013, published 2019):
Ends that are not written are not given here.

system: human peripheral blood mononuclear cells (MCP-1); assay: SPOT-synthesized derivative screen: production of chemokine MCP-1; format: cell-based; conditions: Table 12; No LPS; human PBMC, peptide at ~18-24 μM
How it was run: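 MCP-1 was quantified by capture ELISA in cleared culture supernatants of treated human peripheral blood mononuclear cells. Cells came from heparinized volunteer blood via Ficoll gradient and were seeded at 0.75 to 1×10^6 cells/ml (37 °C, 5% CO2).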

Compared with “1018-Q5: single substituted 1018 peptide (VRLIQAVRIWRR-NH2) [Peptide 1018-Q5]”, “1018-I2: single substituted 1018 peptide (VILIVAVRIWRR-NH2) [Peptide 1018-I2]” is higher in “Fold increase in MCP1 cf. untreated cells” value (“Fold increase” for short): 0.7 for the first, 44 for the second.

Compared with “1018-Q9: single substituted 1018 peptide (VRLIVAVRQWRR-NH2) [Peptide 1018-Q9]”, “1002-V6: single substituted 1002 peptide (VQRWLVVWRIRK-NH2) [Peptide 1002-V6]” is higher in “Fold increase” value: 0.8 for the first, 1.5 for the second.

Going from “1018-G8: single substituted 1018 peptide (VRLIVAVGIWRR-NH2) [Peptide 1018-G8]” to “1002-I4: single substituted 1002 peptide (VQRILIVWRIRK-NH2) [Peptide 1002-I4]”, the “Fold increase” value rises from 1.3 to 2.1.

First: 1002-Q5: single substituted 1002 peptide (VQRWQIVWRIRK-NH2) [Peptide 1002-Q5]
Second: 1018-V8: single substituted 1018 peptide (VRLIVAVVIWRR-NH2) [Peptide 1018-V8]
The “Fold increase” value of the first is lower: 0.9 for the first, 1.2 for the second.

Going from “1002-I1: single substituted 1002 peptide (IQRWLIVWRIRK-NH2) [Peptide 1002-I1]” to “1002-I2: single substituted 1002 peptide (VIRWLIVWRIRK-NH2) [Peptide 1002-I2]”, the “Fold increase” value falls from 17.7 to 3.1.

First: 1018-V4: single substituted 1018 peptide (VRLVVAVRIWRR-NH2) [Peptide 1018-V4]
Second: 1002-R6: single substituted 1002 peptide (VQRWLRVWRIRK-NH2) [Peptide 1002-R6]
The “Fold increase” value of the first is higher: 1.2 for the first, 1.0 for the second.

First: 1002-V3: single substituted 1002 peptide (VQVWLIVWRIRK-NH2) [Peptide 1002-V3]
Second: 1018-L6: single substituted 1018 peptide (VRLIVLVRIWRR-NH2) [Peptide 1018-L6]
The “Fold increase” value of the first is higher: 2.5 for the first, 0.7 for the second.

In the case of “1002-R4: single substituted 1002 peptide (VQRRLIVWRIRK-NH2) [Peptide 1002-R4]”, the “Fold increase” value is reported as 0.9.

same assay, conditions: Table 12; No LPS; human PBMC, peptide at ~18-24 μM; background subtracted 139 (HH2 derivatives), 170 (1018 derivatives), 242 (1002 and hybrid peptides) pg/ml

Compared with “1018-Q5: single substituted 1018 peptide (VRLIQAVRIWRR-NH2) [Peptide 1018-Q5]”, “1018-I2: single substituted 1018 peptide (VILIVAVRIWRR-NH2) [Peptide 1018-I2]” is higher in “MCP1” value: -54 pg/mL for the first, 7342 pg/mL for the second.

First: 1018-Q9: single substituted 1018 peptide (VRLIVAVRQWRR-NH2) [Peptide 1018-Q9]
Second: 1002-V6: single substituted 1002 peptide (VQRWLVVWRIRK-NH2) [Peptide 1002-V6]
The “MCP1” value of the first is lower: -28 pg/mL for the first, 113.5 pg/mL for the second.

First: 1018-G8: single substituted 1018 peptide (VRLIVAVGIWRR-NH2) [Peptide 1018-G8]
Second: 1002-I4: single substituted 1002 peptide (VQRILIVWRIRK-NH2) [Peptide 1002-I4]
The “MCP1” value of the first is 4.8-fold lower: 57 pg/mL for the first, 273.6 pg/mL for the second.

Going from “1002-Q5: single substituted 1002 peptide (VQRWQIVWRIRK-NH2) [Peptide 1002-Q5]” to “1018-V8: single substituted 1018 peptide (VRLIVAVVIWRR-NH2) [Peptide 1018-V8]”, the “MCP1” value rises from -36.2 pg/mL to 29 pg/mL.

First: 1002-I1: single substituted 1002 peptide (IQRWLIVWRIRK-NH2) [Peptide 1002-I1]
Second: 1002-I2: single substituted 1002 peptide (VIRWLIVWRIRK-NH2) [Peptide 1002-I2]
The “MCP1” value of the first is 8-fold higher: 4059.0 pg/mL for the first, 508.6 pg/mL for the second.

First: 1018-V4: single substituted 1018 peptide (VRLVVAVRIWRR-NH2) [Peptide 1018-V4]
Second: 1002-R6: single substituted 1002 peptide (VQRWLRVWRIRK-NH2) [Peptide 1002-R6]
The “MCP1” value of the first is 16-fold higher: 29 pg/mL for the first, 1.8 pg/mL for the second.

Compared with “1002-V3: single substituted 1002 peptide (VQVWLIVWRIRK-NH2) [Peptide 1002-V3]”, “1018-L6: single substituted 1018 peptide (VRLIVLVRIWRR-NH2) [Peptide 1018-L6]” is lower in “MCP1” value: 359.1 pg/mL for the first, -60 pg/mL for the second.

For “1002-R4: single substituted 1002 peptide (VQRRLIVWRIRK-NH2) [Peptide 1002-R4]”, the “MCP1” value was -36.2 pg/mL.

system: methicillin resistant Staphylococcus aureus (MRSA) biofilm; assay: not given; conditions: approximate peptide concentration […] (around 3 μg/ml); compared to untreated samples
How it was run: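 Peptide was present from inoculation onward, with bacteria seeded at 1/100 from overnight cultures into BM2 biofilm medium or Luria Broth. Crystal violet staining of surface-attached cells (A595) quantified biofilm reduction at 22–46 h. K. pneumoniae was additionally screened in a real-time Bioflux flow device for some peptides.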

Compared with “1018-Q5: single substituted 1018 peptide (VRLIQAVRIWRR-NH2) [Peptide 1018-Q5]”, “1018-I2: single substituted 1018 peptide (VILIVAVRIWRR-NH2) [Peptide 1018-I2]” is higher in “% Biofilm inhibition” value: 13% for the first, 61% for the second.

Going from “1018-Q9: single substituted 1018 peptide (VRLIVAVRQWRR-NH2) [Peptide 1018-Q9]” to “1002-V6: single substituted 1002 peptide (VQRWLVVWRIRK-NH2) [Peptide 1002-V6]”, the “% Biofilm inhibition” value rises from 38% to 71%.

First: 1018-G8: single substituted 1018 peptide (VRLIVAVGIWRR-NH2) [Peptide 1018-G8]
Second: 1002-I4: single substituted 1002 peptide (VQRILIVWRIRK-NH2) [Peptide 1002-I4]
The “% Biofilm inhibition” value of the first is lower: 54% for the first, 62% for the second.

First: 1002-Q5: single substituted 1002 peptide (VQRWQIVWRIRK-NH2) [Peptide 1002-Q5]
Second: 1018-V8: single substituted 1018 peptide (VRLIVAVVIWRR-NH2) [Peptide 1018-V8]
The “% Biofilm inhibition” value of the first is higher: 48% for the first, 34% for the second.

Compared with “1002-I1: single substituted 1002 peptide (IQRWLIVWRIRK-NH2) [Peptide 1002-I1]”, “1002-I2: single substituted 1002 peptide (VIRWLIVWRIRK-NH2) [Peptide 1002-I2]” is higher in “% Biofilm inhibition” value: 64% for the first, 70% for the second.

First: 1018-V4: single substituted 1018 peptide (VRLVVAVRIWRR-NH2) [Peptide 1018-V4]
Second: 1002-R6: single substituted 1002 peptide (VQRWLRVWRIRK-NH2) [Peptide 1002-R6]
The “% Biofilm inhibition” value of the first is higher: 75% for the first, 13% for the second.

First: 1002-V3: single substituted 1002 peptide (VQVWLIVWRIRK-NH2) [Peptide 1002-V3]
Second: 1018-L6: single substituted 1018 peptide (VRLIVLVRIWRR-NH2) [Peptide 1018-L6]
The “% Biofilm inhibition” value of the first is lower: 49% for the first, 69% for the second.

For “1002-R4: single substituted 1002 peptide (VQRRLIVWRIRK-NH2) [Peptide 1002-R4]”, the “% Biofilm inhibition” value was 36%.

system: LPS-stimulated human peripheral blood mononuclear cells (IL1-β); assay: not given; format: cell-based; conditions: Table 12; cells stimulated with 10 ng/ml LPS

Going from “1018-Q5: single substituted 1018 peptide (VRLIQAVRIWRR-NH2) [Peptide 1018-Q5]” to “1018-I2: single substituted 1018 peptide (VILIVAVRIWRR-NH2) [Peptide 1018-I2]”, the “Fold change in IL1β relative to no peptide LPS stimulated cells” value falls from 1.03 to 0.42.

First: 1018-Q9: single substituted 1018 peptide (VRLIVAVRQWRR-NH2) [Peptide 1018-Q9]
Second: 1002-V6: single substituted 1002 peptide (VQRWLVVWRIRK-NH2) [Peptide 1002-V6]
The “Fold change in IL1β relative to no peptide LPS stimulated cells” value of the first is higher: 1.00 for the first, 0.05 for the second.

Compared with “1018-G8: single substituted 1018 peptide (VRLIVAVGIWRR-NH2) [Peptide 1018-G8]”, “1002-I4: single substituted 1002 peptide (VQRILIVWRIRK-NH2) [Peptide 1002-I4]” is lower in “Fold change in IL1β relative to no peptide LPS stimulated cells” value: 0.10 for the first, 0.09 for the second.

Going from “1002-Q5: single substituted 1002 peptide (VQRWQIVWRIRK-NH2) [Peptide 1002-Q5]” to “1018-V8: single substituted 1018 peptide (VRLIVAVVIWRR-NH2) [Peptide 1018-V8]”, the “Fold change in IL1β relative to no peptide LPS stimulated cells” value rises from 0.07 to 0.35.

“1002-I1: single substituted 1002 peptide (IQRWLIVWRIRK-NH2) [Peptide 1002-I1]” and “1002-I2: single substituted 1002 peptide (VIRWLIVWRIRK-NH2) [Peptide 1002-I2]” are the same in “Fold change in IL1β relative to no peptide LPS stimulated cells” value: 0.05 for the first, 0.05 for the second.

Going from “1018-V4: single substituted 1018 peptide (VRLVVAVRIWRR-NH2) [Peptide 1018-V4]” to “1002-R6: single substituted 1002 peptide (VQRWLRVWRIRK-NH2) [Peptide 1002-R6]”, the “Fold change in IL1β relative to no peptide LPS stimulated cells” value rises from 0.11 to 0.25.

Going from “1002-V3: single substituted 1002 peptide (VQVWLIVWRIRK-NH2) [Peptide 1002-V3]” to “1018-L6: single substituted 1018 peptide (VRLIVLVRIWRR-NH2) [Peptide 1018-L6]”, the “Fold change in IL1β relative to no peptide LPS stimulated cells” value rises from 0.05 to 0.26.

With “1002-R4: single substituted 1002 peptide (VQRRLIVWRIRK-NH2) [Peptide 1002-R4]” the “Fold change in IL1β relative to no peptide LPS stimulated cells” value was 0.34.

same assay, conditions: Table 12; cells stimulated with 10 ng/ml LPS; LPS alone 1313 (HH2 derivatives), 1927 (1018 derivatives), 2455 (1002 and hybrid peptides) pg/ml

Compared with “1018-Q5: single substituted 1018 peptide (VRLIQAVRIWRR-NH2) [Peptide 1018-Q5]”, “1018-I2: single substituted 1018 peptide (VILIVAVRIWRR-NH2) [Peptide 1018-I2]” is 2.4-fold lower in “IL1β Production” value: 1354 pg/mL for the first, 557 pg/mL for the second.

Compared with “1018-Q9: single substituted 1018 peptide (VRLIVAVRQWRR-NH2) [Peptide 1018-Q9]”, “1002-V6: single substituted 1002 peptide (VQRWLVVWRIRK-NH2) [Peptide 1002-V6]” is 10-fold lower in “IL1β Production” value: 1313 pg/mL for the first, 127 pg/mL for the second.

First: 1018-G8: single substituted 1018 peptide (VRLIVAVGIWRR-NH2) [Peptide 1018-G8]
Second: 1002-I4: single substituted 1002 peptide (VQRILIVWRIRK-NH2) [Peptide 1002-I4]
The “IL1β Production” value of the first is 1.7-fold lower: 127 pg/mL for the first, 213 pg/mL for the second.

Compared with “1002-Q5: single substituted 1002 peptide (VQRWQIVWRIRK-NH2) [Peptide 1002-Q5]”, “1018-V8: single substituted 1018 peptide (VRLIVAVVIWRR-NH2) [Peptide 1018-V8]” is 2.6-fold higher in “IL1β Production” value: 180 pg/mL for the first, 463 pg/mL for the second.

“1002-I1: single substituted 1002 peptide (IQRWLIVWRIRK-NH2) [Peptide 1002-I1]” and “1002-I2: single substituted 1002 peptide (VIRWLIVWRIRK-NH2) [Peptide 1002-I2]” are the same in “IL1β Production” value: 127 pg/mL for the first, 127 pg/mL for the second.

Compared with “1018-V4: single substituted 1018 peptide (VRLVVAVRIWRR-NH2) [Peptide 1018-V4]”, “1002-R6: single substituted 1002 peptide (VQRWLRVWRIRK-NH2) [Peptide 1002-R6]” is 4.2-fold higher in “IL1β Production” value: 144 pg/mL for the first, 605 pg/mL for the second.

Compared with “1002-V3: single substituted 1002 peptide (VQVWLIVWRIRK-NH2) [Peptide 1002-V3]”, “1018-L6: single substituted 1018 peptide (VRLIVLVRIWRR-NH2) [Peptide 1018-L6]” is 2.7-fold higher in “IL1β Production” value: 127 pg/mL for the first, 340 pg/mL for the second.

In the case of “1002-R4: single substituted 1002 peptide (VQRRLIVWRIRK-NH2) [Peptide 1002-R4]”, the “IL1β Production” value is reported as 834 pg/mL.
